According to BindingDB's records for doi:10.1016/j.bmc.2009.08.006 (Universitat de Barcelona, 2009):

Target: 5-hydroxytryptamine receptor 6 (Homo sapiens, UniProt P50406)
Assay: 5-HT6 Binding Assay
Settings: pH 7.4; 37 °C
Protocol: The incubation was initiated by addition of membrane to reaction buffer contained radioligand in the presence of test compound. And the incubation time was 60 min at 37 deg C. After incubation, the membranes were collected onto polyethylenimine-pretreated glass fiber filters. Radioactivity was determined by scintillation counting. Nonspecific binding was determined with 100 uM serotonin. Competition binding data were analyzed by using the LIGAND program, and assays were performed in triplicate determinations for each point.

Chain of 5-hydroxytryptamine receptor 6 (P50406 whole entry): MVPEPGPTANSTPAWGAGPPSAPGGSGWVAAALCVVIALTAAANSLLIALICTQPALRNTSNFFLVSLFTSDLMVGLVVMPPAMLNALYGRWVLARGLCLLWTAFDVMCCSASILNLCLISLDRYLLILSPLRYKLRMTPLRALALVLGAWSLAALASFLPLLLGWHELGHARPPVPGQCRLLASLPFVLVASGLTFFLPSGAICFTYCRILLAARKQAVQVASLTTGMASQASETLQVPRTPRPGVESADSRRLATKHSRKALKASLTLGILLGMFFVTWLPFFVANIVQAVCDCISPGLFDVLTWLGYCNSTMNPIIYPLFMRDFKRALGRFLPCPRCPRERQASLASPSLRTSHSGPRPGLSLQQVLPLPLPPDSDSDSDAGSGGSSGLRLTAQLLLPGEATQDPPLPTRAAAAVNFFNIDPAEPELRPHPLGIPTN

| SMILES | IC50 [µM] | EC50 [µM] | Ki [µM] |
| --- | --- | --- | --- |
| CN(C)CCc1c[nH]c2ccc(NS(=O)(=O)c3ccc4c(Cl)cccc4c3)cc12 |  | 0.00029 |  |
| CN1CCC(c2cn(S(=O)(=O)c3ccccc3Br)c3ccccc23)C1 (centres undefined) |  | 0.0533 |  |
| CN(C)Cc1cn(S(=O)(=O)c2ccccc2)c2ccccc12 |  | 0.88 |  |
| Cc1cn(S(=O)(=O)c2ccc(N)cc2)c2ccccc12 [4-(3-methyl-1H-indole-1-sulfonyl)aniline, 8] |  | 0.32 |  |
| O=S(=O)(Nc1ccc2[nH]cc(C[C@H]3CCCN3)c2c1)c1ccccc1I [(R)-5a] |  | 0.0004 | 0.001 |
| CC1=Cc2cc(NS(=O)(=O)c3c(Cl)nc4sccn34)ccc2C1 [indenylsulfonamide, 47+48] | 3 |  | 0.043 |
| CN1CCC[C@H]1Cc1c[nH]c2ccc(NS(=O)(=O)c3ccc(C(F)(F)F)cc3)cc12 [pyrrolidinylindole, (S)-5b] |  | 0.0216 |  |
